Values after ≈ are worked out from the molar mass of the structure shown.
What was measured:
Test in all cases: in vitro antibacterial evaluation, MIC by broth dilution
Type in all cases: cell-based
Staphylococcus sp. = details: broth dilution, 18 hours at 35° C.
Summary of the method: (§1)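 Broth dilution per NCCLS M7-A2 in Mueller-Hinton II medium, inoculum 5×10^5 CFU/mL, antibiotic range 64-0.06 μg/mL. MIC taken as lowest concentration inhibiting growth; Gram-positive panel includes recent clinical isolates resistant to methicillin, penicillin and/or vancomycin.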

Streptococcus sp. = details: broth dilution, 18 hours at 35° C.
Summary of the method: as §1

Enterococcus sp. = details: broth dilution, 18 hours at 35° C.
Summary of the method: as §1

Escherichia coli = details: 18 hours at 35° C.
Summary of the method: as §1

Compound: CC(c1ccccc1)C1NC(=O)CNC(=O)C(CO)NC(=O)C(C(O)C2CNC(=N)N2C2OC(CO)C(O)C(O)C2O)NC(=O)C(C(O)C2CNC(=N)N2)NC(=O)C(Cc2ccc(OC3OC(CO)C(OC4OC(CO)C(O)C5OC(c6ccccc6)OC45)C(O)C3O)cc2)NC1=O (single isomer, unassigned) [Example 104a, Cyclo[glycyl-β-methylphenylalanyl-O-[4-O-(2,3-O-benzylidenehexopyranosyl)hexopyranosyl]-tyrosyl-3-(2-iminoimidazolidin-4-yl)seryl-3-(3-hexopyranosyl-2-iminoimidazolidin-4-yl)-serylseryl]]
- MIC Coagulase Negative Staphylococcus (GC 4547) (Staphylococcus sp.): 32 µg/mL (≈ 23.1 µM)
- MIC Coagulase Negative Staphylococcus (GC 4548) (Staphylococcus sp.): 16 to 32 µg/mL
- MIC Coagulase Negative Staphylococcus (GC 4549) (Staphylococcus sp.): 16 to 32 µg/mL
- MIC Coagulase Negative Staphylococcus (GC 4551) (Staphylococcus sp.): 32 µg/mL (≈ 23.1 µM)
- MIC Coagulase Negative Staphylococcus (GC 6257) (Staphylococcus sp.): 16 µg/mL (≈ 11.6 µM)
- MIC Staphylococcus aureus (ATCC 29213) (Staphylococcus sp.): 0.5 to 64 µg/mL
- MIC Staphylococcus aureus (GC 1131) (Staphylococcus sp.): 0.5 to 64 µg/mL
- MIC Staphylococcus aureus (GC 3051) (Staphylococcus sp.): 0.5 µg/mL (≈ 0.361 µM)
- MIC Staphylococcus aureus (GC 3053) (Staphylococcus sp.): 0.5 µg/mL (≈ 0.361 µM)
- MIC Staphylococcus aureus (GC 4541) (Staphylococcus sp.): 0.5 to 32 µg/mL
- MIC Staphylococcus aureus (GC 4542) (Staphylococcus sp.): 0.5 µg/mL (≈ 0.361 µM)
- MIC Staphylococcus aureus (GC 4544) (Staphylococcus sp.): 0.5 µg/mL (≈ 0.361 µM)
- MIC Staphylococcus aureus (GC 4545) (Staphylococcus sp.): 0.5 µg/mL (≈ 0.361 µM)
- MIC Staphylococcus aureus-SMITH (GC 4543) (Staphylococcus sp.): 0.5 to 64 µg/mL
- MIC Staphylococcus haemolyticus (GC 4546) (Staphylococcus sp.): 32 µg/mL (≈ 23.1 µM)
- MIC Staphylococcus haemolyticus (GC 4546) (Staphylococcus sp.; strain GC 4546): 32 µg/mL (≈ 23.1 µM)
- MIC Coagulase Negative Staphylococcus (GC 4547) (Staphylococcus sp.; strain GC 4547): 32 µg/mL (≈ 23.1 µM)
- MIC Coagulase Negative Staphylococcus (GC 4548) (Staphylococcus sp.; strain GC 4548): 16 to 32 µg/mL
- MIC Coagulase Negative Staphylococcus (GC 4549) (Staphylococcus sp.; strain GC 4549): 16 to 32 µg/mL
- MIC Coagulase Negative Staphylococcus (GC 4551) (Staphylococcus sp.; strain GC 4551): 32 µg/mL (≈ 23.1 µM)
- MIC Coagulase Negative Staphylococcus (GC 6257) (Staphylococcus sp.; strain GC 6257): 16 µg/mL (≈ 11.6 µM)
- MIC Staphylococcus aureus-SMITH (GC 4543) (Staphylococcus sp.; strain SMITH GC 4543): 0.5 to 64 µg/mL
- MIC Staphylococcus aureus (ATCC 29213) (Staphylococcus sp.; strain ATCC 29213): 0.5 to 64 µg/mL
- MIC Staphylococcus aureus (GC 1131) (Staphylococcus sp.; strain GC 1131): 0.5 to 64 µg/mL
- MIC Staphylococcus aureus (GC 3051) (Staphylococcus sp.; strain GC 3051): 0.5 µg/mL (≈ 0.361 µM)
- MIC Staphylococcus aureus (GC 3053) (Staphylococcus sp.; strain GC 3053): 0.5 µg/mL (≈ 0.361 µM)
- MIC Staphylococcus aureus (GC 4541) (Staphylococcus sp.; strain GC 4541): 0.5 to 32 µg/mL
- MIC Staphylococcus aureus (GC 4542) (Staphylococcus sp.; strain GC 4542): 0.5 µg/mL (≈ 0.361 µM)
- MIC Staphylococcus aureus (GC 4544) (Staphylococcus sp.; strain GC 4544): 0.5 µg/mL (≈ 0.361 µM)
- MIC Staphylococcus aureus (GC 4545) (Staphylococcus sp.; strain GC 4545): 0.5 µg/mL (≈ 0.361 µM)
- MIC Streptococcus agalactiae (GC 4564) (Streptococcus sp.; Streptococcus agalactiae (GC 4564)): 0.5 µg/mL (≈ 0.361 µM)
- MIC Streptococcus pneumoniae (ATCC 6301) (Streptococcus sp.; Streptococcus pneumoniae (ATCC 6301)): 0.12 to 16 µg/mL
- MIC Streptococcus pneumoniae (GC 1894) (Streptococcus sp.; Streptococcus pneumoniae (GC 1894)): 0.12 to 8 µg/mL
- MIC Streptococcus pneumoniae (GC 4565) (Streptococcus sp.; Streptococcus pneumoniae (GC 4565)): 0.12 µg/mL (≈ 0.0867 µM)
- MIC Streptococcus pyogenes (GC 4563) (Streptococcus sp.; Streptococcus pyogenes (GC 4563)): 0.12 µg/mL (≈ 0.0867 µM)
- MIC Streptococcus pneumoniae (ATCC 6301) (Streptococcus sp.; strain ATCC 6301): 0.12 to 16 µg/mL
- MIC Streptococcus pneumoniae (GC 1894) (Streptococcus sp.; strain GC 1894): 0.12 to 8 µg/mL
- MIC Streptococcus pyogenes (GC 4563) (Streptococcus sp.; strain GC 4563): 0.12 µg/mL (≈ 0.0867 µM)
- MIC Streptococcus agalactiae (GC 4564) (Streptococcus sp.; strain GC 4564): 0.5 µg/mL (≈ 0.361 µM)
- MIC Streptococcus pneumoniae (GC 4565) (Streptococcus sp.; strain GC 4565): 0.12 µg/mL (≈ 0.0867 µM)
- MIC Enterococcus avium (GC 4558) (Enterococcus sp.; Enterococcus avium (GC 4558)): >64 µg/mL
- MIC Enterococcus faecalis (ATCC 29212) (Enterococcus sp.; Enterococcus faecalis (ATCC 29212)): >64 µg/mL
- MIC Enterococcus faecalis (GC 2242) (Enterococcus sp.; Enterococcus faecalis (GC 2242)): >64 µg/mL
- MIC Enterococcus faecalis (GC 2691) (Enterococcus sp.; Enterococcus faecalis (GC 2691)): >0.5 µg/mL
- MIC Enterococcus faecalis (GC 3059) (Enterococcus sp.; Enterococcus faecalis (GC 3059)): >0.5 µg/mL
- MIC Enterococcus faecalis (GC 4552) (Enterococcus sp.; Enterococcus faecalis (GC 4552)): >0.5 µg/mL
- MIC Enterococcus faecalis (GC 4553) (Enterococcus sp.; Enterococcus faecalis (GC 4553)): >0.5 µg/mL
- MIC Enterococcus faecalis (GC 4554) (Enterococcus sp.; Enterococcus faecalis (GC 4554)): >0.5 µg/mL
- MIC Enterococcus faecalis (GC 6189) (Enterococcus sp.; Enterococcus faecalis (GC 6189)): >64 µg/mL
- MIC Enterococcus faecium (GC 2243) (Enterococcus sp.; Enterococcus faecium (GC 2243)): >64 µg/mL
- MIC Enterococcus faecium (GC 4556) (Enterococcus sp.; Enterococcus faecium (GC 4556)): >64 µg/mL
- MIC Enterococcus faecium (GC 4557) (Enterococcus sp.; Enterococcus faecium (GC 4557)): 0.5 µg/mL (≈ 0.361 µM)
- MIC Enterococcus faecalis (ATCC 29212) (Enterococcus sp.; strain ATCC 29212): >64 µg/mL
- MIC Enterococcus faecalis (GC 2242) (Enterococcus sp.; strain GC 2242): >64 µg/mL
- MIC Enterococcus faecium (GC 2243) (Enterococcus sp.; strain GC 2243): >64 µg/mL
- MIC Enterococcus faecalis (GC 2691) (Enterococcus sp.; strain GC 2691): >0.5 µg/mL
- MIC Enterococcus faecalis (GC 3059) (Enterococcus sp.; strain GC 3059): >0.5 µg/mL
- MIC Enterococcus faecalis (GC 4552) (Enterococcus sp.; strain GC 4552): >0.5 µg/mL
- MIC Enterococcus faecalis (GC 4553) (Enterococcus sp.; strain GC 4553): >0.5 µg/mL
- MIC Enterococcus faecalis (GC 4554) (Enterococcus sp.; strain GC 4554): >0.5 µg/mL
- MIC Enterococcus faecium (GC 4556) (Enterococcus sp.; strain GC 4556): >64 µg/mL
- MIC Enterococcus faecium (GC 4557) (Enterococcus sp.; strain GC 4557): 0.5 µg/mL (≈ 0.361 µM)
- MIC Enterococcus avium (GC 4558) (Enterococcus sp.; strain GC 4558): >64 µg/mL
- MIC Enterococcus faecalis (GC 6189) (Enterococcus sp.; strain GC 6189): >64 µg/mL
- MIC Escherichia coli (ATCC 25922) (Escherichia coli; strain ATCC 25922): >64 µg/mL
- MIC Escherichia coli (GC 4559) (Escherichia coli; strain GC 4559): >64 µg/mL
- MIC Escherichia coli (GC 4560) (Escherichia coli; strain GC 4560): 0.5 to 16 µg/mL

Source: US6914045B2, “Glycopeptide antibiotics” (Wyeth Holdings Corporation, priority 2001, dated 2005)
